{"source": "paper PMC11432405", "about": "“Development of Novel Alaninamide Derivatives with Anticonvulsant Activity and Favorable Safety Profiles in Animal Models” (International Journal of Molecular Sciences, 2024)", "key": {"[1]": {"target": "T1, Cav1.2 (h) calcium ion channel (Homo sapiens, UniProt Q13936)", "T1 construct": "Eurofins Cerep SA / Eurofins Panlabs Discovery Services Taiwan (contract assay)", "T1 sequence (Q13936 whole entry)": "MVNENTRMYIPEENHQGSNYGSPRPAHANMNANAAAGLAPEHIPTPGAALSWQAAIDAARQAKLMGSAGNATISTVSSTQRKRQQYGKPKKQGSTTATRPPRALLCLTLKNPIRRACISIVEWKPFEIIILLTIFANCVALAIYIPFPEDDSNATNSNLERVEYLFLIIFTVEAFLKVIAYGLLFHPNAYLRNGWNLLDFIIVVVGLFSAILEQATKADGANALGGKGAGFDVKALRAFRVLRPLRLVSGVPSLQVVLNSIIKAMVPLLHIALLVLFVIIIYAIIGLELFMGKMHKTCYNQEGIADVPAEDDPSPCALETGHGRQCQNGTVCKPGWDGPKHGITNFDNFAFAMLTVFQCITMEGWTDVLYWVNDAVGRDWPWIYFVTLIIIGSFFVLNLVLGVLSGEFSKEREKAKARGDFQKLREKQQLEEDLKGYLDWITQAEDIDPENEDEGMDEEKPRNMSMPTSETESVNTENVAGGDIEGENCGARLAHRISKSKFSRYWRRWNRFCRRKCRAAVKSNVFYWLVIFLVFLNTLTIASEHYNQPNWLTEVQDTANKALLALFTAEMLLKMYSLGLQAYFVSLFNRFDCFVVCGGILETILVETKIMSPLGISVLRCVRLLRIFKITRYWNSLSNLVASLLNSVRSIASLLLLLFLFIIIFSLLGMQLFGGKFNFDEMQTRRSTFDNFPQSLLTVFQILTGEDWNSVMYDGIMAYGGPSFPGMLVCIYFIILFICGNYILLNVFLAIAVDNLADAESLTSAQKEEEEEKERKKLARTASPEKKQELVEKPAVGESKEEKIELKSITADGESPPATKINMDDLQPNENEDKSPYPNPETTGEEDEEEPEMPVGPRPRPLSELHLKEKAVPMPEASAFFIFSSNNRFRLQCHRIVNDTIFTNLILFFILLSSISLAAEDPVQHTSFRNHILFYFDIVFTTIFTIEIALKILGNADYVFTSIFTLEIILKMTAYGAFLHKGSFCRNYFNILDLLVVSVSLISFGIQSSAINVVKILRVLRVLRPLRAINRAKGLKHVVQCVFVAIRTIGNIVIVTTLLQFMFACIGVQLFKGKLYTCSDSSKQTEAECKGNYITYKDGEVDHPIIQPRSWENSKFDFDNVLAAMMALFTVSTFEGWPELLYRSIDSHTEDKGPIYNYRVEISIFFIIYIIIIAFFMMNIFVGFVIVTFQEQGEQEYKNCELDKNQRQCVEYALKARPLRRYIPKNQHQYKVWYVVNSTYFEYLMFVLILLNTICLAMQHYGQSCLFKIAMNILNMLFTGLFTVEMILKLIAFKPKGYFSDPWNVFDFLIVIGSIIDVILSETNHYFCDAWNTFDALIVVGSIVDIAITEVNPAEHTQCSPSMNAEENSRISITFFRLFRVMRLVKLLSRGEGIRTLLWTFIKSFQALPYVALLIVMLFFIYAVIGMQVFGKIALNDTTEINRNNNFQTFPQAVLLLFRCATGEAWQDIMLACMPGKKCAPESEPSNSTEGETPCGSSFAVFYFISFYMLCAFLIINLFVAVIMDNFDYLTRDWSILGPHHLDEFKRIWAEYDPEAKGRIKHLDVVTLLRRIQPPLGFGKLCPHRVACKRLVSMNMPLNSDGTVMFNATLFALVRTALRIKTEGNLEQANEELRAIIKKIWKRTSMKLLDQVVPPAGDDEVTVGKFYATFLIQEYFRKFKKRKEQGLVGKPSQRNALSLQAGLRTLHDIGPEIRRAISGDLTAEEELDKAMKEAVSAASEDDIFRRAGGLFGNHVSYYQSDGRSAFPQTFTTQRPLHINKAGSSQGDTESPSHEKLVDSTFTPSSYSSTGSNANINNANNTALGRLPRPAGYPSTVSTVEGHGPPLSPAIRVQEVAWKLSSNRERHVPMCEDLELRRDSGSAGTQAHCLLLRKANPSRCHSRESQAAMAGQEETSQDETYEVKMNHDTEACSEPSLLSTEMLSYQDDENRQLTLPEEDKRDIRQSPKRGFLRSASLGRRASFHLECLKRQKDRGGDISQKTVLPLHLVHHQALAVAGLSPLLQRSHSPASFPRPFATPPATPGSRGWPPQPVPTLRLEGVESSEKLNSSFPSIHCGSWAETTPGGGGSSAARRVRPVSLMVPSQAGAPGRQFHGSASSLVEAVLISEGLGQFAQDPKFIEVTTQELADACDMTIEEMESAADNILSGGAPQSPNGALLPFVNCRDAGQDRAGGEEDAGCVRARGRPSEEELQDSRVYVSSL", "T1 sequence (Q08289 whole entry partner)": "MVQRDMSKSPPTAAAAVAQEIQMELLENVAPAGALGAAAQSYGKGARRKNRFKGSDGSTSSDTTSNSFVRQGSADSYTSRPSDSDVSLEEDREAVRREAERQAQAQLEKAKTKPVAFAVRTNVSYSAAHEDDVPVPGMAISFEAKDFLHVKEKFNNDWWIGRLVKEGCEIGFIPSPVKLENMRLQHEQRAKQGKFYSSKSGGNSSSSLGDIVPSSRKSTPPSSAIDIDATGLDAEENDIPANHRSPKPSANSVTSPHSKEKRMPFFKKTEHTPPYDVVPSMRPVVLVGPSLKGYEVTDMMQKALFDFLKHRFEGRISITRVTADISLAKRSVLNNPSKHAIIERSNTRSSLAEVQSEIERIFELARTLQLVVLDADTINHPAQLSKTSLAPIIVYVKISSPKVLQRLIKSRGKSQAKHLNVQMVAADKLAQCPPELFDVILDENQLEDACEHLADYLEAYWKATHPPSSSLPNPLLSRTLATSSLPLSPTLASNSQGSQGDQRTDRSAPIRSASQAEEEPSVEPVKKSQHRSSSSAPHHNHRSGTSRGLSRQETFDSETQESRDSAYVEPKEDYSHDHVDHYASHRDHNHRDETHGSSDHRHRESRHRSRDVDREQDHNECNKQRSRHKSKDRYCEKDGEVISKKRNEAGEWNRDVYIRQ", "T1 sequence (P54289 25-1103 partner)": "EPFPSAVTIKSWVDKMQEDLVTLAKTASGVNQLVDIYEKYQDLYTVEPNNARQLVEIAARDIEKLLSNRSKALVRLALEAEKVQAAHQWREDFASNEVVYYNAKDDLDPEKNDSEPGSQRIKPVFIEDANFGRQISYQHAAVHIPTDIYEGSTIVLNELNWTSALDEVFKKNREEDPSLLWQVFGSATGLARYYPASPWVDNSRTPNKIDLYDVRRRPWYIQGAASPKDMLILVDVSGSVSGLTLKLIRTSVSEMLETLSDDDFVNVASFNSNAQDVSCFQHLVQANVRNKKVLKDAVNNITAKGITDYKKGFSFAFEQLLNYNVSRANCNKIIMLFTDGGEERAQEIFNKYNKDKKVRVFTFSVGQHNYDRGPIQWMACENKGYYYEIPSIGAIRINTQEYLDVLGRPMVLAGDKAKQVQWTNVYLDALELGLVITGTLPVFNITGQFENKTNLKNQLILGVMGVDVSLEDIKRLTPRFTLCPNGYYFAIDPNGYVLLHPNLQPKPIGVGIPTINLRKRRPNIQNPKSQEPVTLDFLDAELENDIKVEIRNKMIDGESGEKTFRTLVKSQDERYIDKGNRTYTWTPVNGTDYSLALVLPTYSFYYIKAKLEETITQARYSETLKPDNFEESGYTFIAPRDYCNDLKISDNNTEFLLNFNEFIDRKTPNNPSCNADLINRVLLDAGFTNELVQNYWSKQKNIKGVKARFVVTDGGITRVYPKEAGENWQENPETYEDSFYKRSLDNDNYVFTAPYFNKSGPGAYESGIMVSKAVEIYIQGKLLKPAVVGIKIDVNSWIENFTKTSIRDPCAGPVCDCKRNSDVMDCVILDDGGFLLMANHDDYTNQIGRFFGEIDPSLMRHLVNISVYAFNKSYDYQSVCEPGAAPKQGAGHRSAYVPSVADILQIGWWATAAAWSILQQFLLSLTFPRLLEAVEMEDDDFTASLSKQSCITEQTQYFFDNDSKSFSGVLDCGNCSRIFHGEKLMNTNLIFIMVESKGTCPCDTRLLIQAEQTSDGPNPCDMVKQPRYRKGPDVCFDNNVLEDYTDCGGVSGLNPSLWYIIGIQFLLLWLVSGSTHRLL", "assay": "Cav1.2 (h) calcium ion channel cell-based antagonist calcium flux assay", "procedure": "(§1) Binding/functional studies were performed commercially in Cerep Laboratories (Poitiers, France) using testing procedures described elsewhere. The general information is listed in Table S3 in the Supporting Information.\n(§2) Table S3. The general information of radioligand binding/functional assays. […]\nCav1.2 (L-type) (h) calcium ion channel cell based antagonist calcium flux assay\n(§3) Assays were performed commercially in Eurofins Cerep SA (Celle l’Evescault, France) and Eurofins\n(§4) Panlabs Discovery Services Taiwan, Ltd. (New Taipei City, Taiwan), using procedures describe"}, "Cav2.2 N-type": {"target": "T2, Cav2.2 N-type (Rattus norvegicus, UniProt P54290)", "T2 construct": "Rat cerebral cortex; tissue Cerep Laboratories / Eurofins (contract assay); host or cells: rat cerebral cortex", "T2 sequence (P54290 25-944 limits assumed)": "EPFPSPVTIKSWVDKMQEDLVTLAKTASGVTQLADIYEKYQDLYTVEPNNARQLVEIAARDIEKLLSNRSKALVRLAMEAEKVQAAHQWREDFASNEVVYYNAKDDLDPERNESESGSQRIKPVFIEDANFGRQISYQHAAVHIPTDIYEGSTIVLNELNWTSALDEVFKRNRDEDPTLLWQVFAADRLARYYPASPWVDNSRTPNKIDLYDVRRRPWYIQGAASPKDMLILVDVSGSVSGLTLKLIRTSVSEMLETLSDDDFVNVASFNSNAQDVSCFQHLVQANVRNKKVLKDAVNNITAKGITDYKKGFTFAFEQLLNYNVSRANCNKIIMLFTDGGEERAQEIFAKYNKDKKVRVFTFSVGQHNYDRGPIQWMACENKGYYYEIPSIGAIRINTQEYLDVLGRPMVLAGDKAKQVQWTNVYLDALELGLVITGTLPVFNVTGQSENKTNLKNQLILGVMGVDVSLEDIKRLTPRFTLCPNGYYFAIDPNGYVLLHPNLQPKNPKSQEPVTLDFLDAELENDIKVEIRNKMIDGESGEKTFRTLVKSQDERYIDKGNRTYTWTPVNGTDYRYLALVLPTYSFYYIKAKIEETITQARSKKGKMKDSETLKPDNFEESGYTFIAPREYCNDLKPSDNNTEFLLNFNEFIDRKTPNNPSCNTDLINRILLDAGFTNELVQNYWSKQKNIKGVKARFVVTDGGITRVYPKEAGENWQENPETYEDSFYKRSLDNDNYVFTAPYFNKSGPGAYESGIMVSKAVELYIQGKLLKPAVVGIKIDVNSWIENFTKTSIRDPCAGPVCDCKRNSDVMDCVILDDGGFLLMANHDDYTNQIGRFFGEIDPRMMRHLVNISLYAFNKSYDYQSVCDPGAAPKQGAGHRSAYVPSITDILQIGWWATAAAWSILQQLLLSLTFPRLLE", "T2 sequence (P54290 945-1091 limits assumed)": "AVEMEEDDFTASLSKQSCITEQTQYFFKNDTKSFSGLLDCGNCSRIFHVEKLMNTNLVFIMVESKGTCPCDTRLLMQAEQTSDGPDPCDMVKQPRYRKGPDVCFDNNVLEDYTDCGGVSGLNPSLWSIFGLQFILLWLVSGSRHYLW", "assay": "radioligand binding Cav2.2 N-type", "settings": "rat cerebral cortex, antagonist radioligand", "procedure": "as §1, §2\nN-type Ca2+ [3H] Gabapentin binding (antagonist radioligand) […]\nas §3, §4"}, "GlyT1": {"target": "T3, GlyT1 (Rattus norvegicus, UniProt P28572)", "T3 construct": "Cerep Laboratories / Eurofins (contract assay)", "T3 sequence (P28572 1-638)": "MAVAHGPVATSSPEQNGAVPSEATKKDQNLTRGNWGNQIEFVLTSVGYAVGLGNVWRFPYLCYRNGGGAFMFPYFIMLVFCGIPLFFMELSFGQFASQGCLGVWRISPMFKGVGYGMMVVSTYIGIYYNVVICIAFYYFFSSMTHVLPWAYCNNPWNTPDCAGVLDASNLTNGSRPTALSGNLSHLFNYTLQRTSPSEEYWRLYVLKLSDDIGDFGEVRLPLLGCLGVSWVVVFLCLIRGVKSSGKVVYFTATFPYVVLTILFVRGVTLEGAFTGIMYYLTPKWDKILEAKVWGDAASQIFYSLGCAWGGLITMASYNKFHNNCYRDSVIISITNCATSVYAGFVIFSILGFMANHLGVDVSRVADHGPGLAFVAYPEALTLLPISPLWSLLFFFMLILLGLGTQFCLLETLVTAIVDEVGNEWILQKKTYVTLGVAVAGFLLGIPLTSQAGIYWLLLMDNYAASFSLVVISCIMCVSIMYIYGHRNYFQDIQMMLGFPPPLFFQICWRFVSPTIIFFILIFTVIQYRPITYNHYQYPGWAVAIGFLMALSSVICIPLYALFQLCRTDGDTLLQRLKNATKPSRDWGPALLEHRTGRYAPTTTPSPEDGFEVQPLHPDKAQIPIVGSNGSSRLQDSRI", "assay": "radioligand binding GlyT1", "settings": "rat cerebral cortex", "procedure": "as §1, §2\nGLYT1 (glycine transporter binding) (antagonist radioligand) […]\nas §3, §4"}, "[2]": {"test_system": "Cav1.2 (L-type) (dihydropyridine site)", "assay": "radioligand binding Cav1.2 (L-type) dihydropyridine site", "settings": "100 µM, rat cerebral cortex", "procedure": "as §1\nTable S3. The general information of radioligand binding/functional assays.\nCa2+channel (L, dihydropyridine site) (antagonist radioligand) […]\nas §3, §4"}, "human recombinant MAO-B": {"target": "T4, human recombinant MAO-B (Homo sapiens, UniProt P27338)", "T4 construct": "purchased Sigma Aldrich", "T4 sequence (P27338 1-520)": "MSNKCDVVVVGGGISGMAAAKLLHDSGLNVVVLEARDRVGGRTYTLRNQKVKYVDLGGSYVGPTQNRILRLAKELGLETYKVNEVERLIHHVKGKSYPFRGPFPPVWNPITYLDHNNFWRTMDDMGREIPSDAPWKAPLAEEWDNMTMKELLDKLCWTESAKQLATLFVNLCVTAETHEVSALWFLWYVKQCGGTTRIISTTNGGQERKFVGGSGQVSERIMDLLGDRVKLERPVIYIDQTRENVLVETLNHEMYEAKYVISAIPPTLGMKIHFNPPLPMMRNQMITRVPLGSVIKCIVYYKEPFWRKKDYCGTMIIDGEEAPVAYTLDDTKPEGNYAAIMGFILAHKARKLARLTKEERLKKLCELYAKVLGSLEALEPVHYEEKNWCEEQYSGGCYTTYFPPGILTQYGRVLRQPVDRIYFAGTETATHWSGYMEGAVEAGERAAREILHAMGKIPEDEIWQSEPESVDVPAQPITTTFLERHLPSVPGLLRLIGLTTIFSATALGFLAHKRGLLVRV", "assay": "fluorometric monoamine oxidase B inhibition assay", "assay_type": "biochemical", "settings": "read-out: % inhibition MAO-B (1 µM), mean of two independent experiments"}, "[3]": {"settings": "read-out: % Inhibition of Control Specific Binding"}}, "note": "Read-outs that look alike come from different tables or passages of the source.", "data": [{"compound": "CC(C(=O)NCc1ccc(OCc2ccccc2)cc1)N1C(=O)CCC1=O", "note": "(centres unmarked) [Compound 5, N-(4-(benzyloxy)benzyl)-2-(2,5-dioxopyrrolidin-1-yl)propanamide]", "values": [{"measurement": "inhibition at 100 µM", "setting": "[1]; HEK293, human recombinant HEK-293 cell, read-out: % Inhibition of Control Agonist Response", "value": 85, "unit": "%"}, {"measurement": "inhibition at 100 µM", "setting": "[1]; read-out: inhibition rate of the Cav1.2 (L-type) calcium channel (text summary of binding and functional assays)", "value": "> 50", "unit": "%"}, {"measurement": "% Inhibition of Control Specific Binding", "setting": "Cav2.2 N-type; 100 µM", "value": "no significant interaction"}, {"measurement": "inhibition at 100 µM", "setting": "Cav2.2 N-type; [3]", "value": 1.1, "unit": "%"}, {"measurement": "% Inhibition of Control Specific Binding", "setting": "GlyT1; 100 µM", "value": "no significant interaction"}, {"measurement": "inhibition at 100 µM", "setting": "GlyT1; [3]", "value": 23, "unit": "%"}, {"measurement": "% Inhibition of Control Specific Binding", "setting": "[2]", "value": "82.3 (100) %"}, {"measurement": "inhibition at 1 µM", "setting": "human recombinant MAO-B", "value": 0, "unit": "%"}]}]}
